PMC8224453, “A New PqsR Inverse Agonist Potentiates Tobramycin Efficacy to Eradicate Pseudomonas aeruginosa Biofilms” (Advanced Science, 2021)

Assays:
[1] = Metabolic stability, dog liver S9; assay type: in vitro ADME; details: pooled liver S9 fraction, Table S4, read-out: t1/2 dog liver S9
Protocol: (§1) For the evaluation of combined phase I and phase II metabolic stability, the compound (1 μM) was incubated with 1 mg/mL pooled liver S9 fraction from the respective species (Xenotech), […]
(§2) 2 mM NADPH, 1 mM UDPGA, 10 mM MgCl2, 5 mM GSH and 0.1 mM PAPS at 37 °C for […]
(§3) 0, 5, 15, 30 or 60 min. The metabolic stability of Testosterone (1 μM) and verapamil (1 μM) […]
(§4) were determined in parallel to confirm the enzymatic activity of the S9 fraction. The […]
(§5) incubation was stopped by precipitation of S9 enzymes with 2 volumes of cold acetonitrile […]
(§6) containing internal standard (750 nM Diphenhydramine). Samples were stored on ice for 10 […]
(§7) min and precipitated protein was removed by centrifugation (10 min, 4 °C, 17,000 g).
(§8) Concentration of the remaining test compound at the different time points was analyzed by […]
(§9) LC-MS/MS (TSQ Quantum Access MAX, Thermo Fisher, Dreieich, Germany) and used to […]
(§10) determine half-life (t1/2). Stability of compound 4 in further S9 fractions are summarized in […]
(§11) Table S4. Metabolic stability studies in various S9 fractions. […]

[2] = Mouse MTD, acute single dose toxicity i.v.; assay type: in vivo; details: mice
Protocol: Pyruvate. Passages between 35 and 55 were used, medium was changed every 2-3 days. For experiments, cells were harvested using Trypsin/EDTA and seeded on Transwell® inserts 3460 at a density of 1∙105 cells. Cells were grown at air-liquid interface beginning day 3 and used for Transport studies on day 11-13. TEER values exceeded 300 Ω∙cm2 before beginning Transport studies. For experiments, Krebs-Ringer solution with 1% BSA was used and cells were accommodated to the buffer for at least 1h with no decrease in TEER. 200 µL samples were taken in regular intervals from the apical side (time intervals 0, 20, 40, 60, 90, 120, 180, 240 minutes) and replenished with fresh buffer. TEER was monitored during the experiment and epithelial barriers were considered compromised if the TEER fell below 300 during 4 h of experiment duration. […] 50 µL of sample was mixed with 150 µL of ice-cold acetonitrile containing internal standard diphenhydramine (1 µM) and the concentration of compound was analyzed with LC-MS/MS. […]
The in vivo tolerability study was performed on ten-week old female C57BL/6N mice. […] Mice behavior and body weight were monitored over 24 h period. At 24 h post-injection, the mice were euthanized, lungs were collected, and the blood leukocytes as well as the absolute leukocytes (including segented, lymphocytes, monocytes and eosinophiles) were counted to access the tolerability. […]

[3] = Metabolic stability, monkey liver S9; assay type: in vitro ADME; details: pooled liver S9 fraction, Table S4, read-out: t1/2 monkey liver S9
Protocol: as §1, §2, §3, §4, §5, §6, §7, §8, §9, §10, §11

In the case of `FC(F)(F)c1cc(NCc2cn(-c3ccc(Oc4ccccc4)cc3)nn2)ccn1` [Compound 4], the half-life at 1 μM [1] is reported as 72.2 ± 7.6 min, the “test dosing up to which no test item related clinical symptoms were observed” value ([2]; i.v. single dose, after 24 h) is reported as at least 60 mg/kg and the MTD at 24 h ([2]; mouse, in vivo, iv, i.v., read-out: dose up to which well tolerated (maximum tolerated dose study)) is reported as at least 60 mg/kg. It also gave a half-life at 1 μM [3] of 22.8 ± 6.7 min.
